Assay results as given in patent US10736974B2, “Scaffolds and multifunctional intermediates for imaging PSMA and cancer therapy” (THE JOHNS HOPKINS UNIVERSITY, priority 2014, dated 2020).
Where two headings read alike, the source gives them in different places.

How the values were obtained:
PSMA [1] = target: T1, PSMA (Homo sapiens (Human), UniProt Q04609); test: NAALADase assay: PSMA inhibitory activity, fluorescence-based Amplex Red Glutamic Acid assay, lysates of LNCaP cell extracts; format: biochemical
Procedure: Briefly, lysates of LNCaP cell extracts (25 μL) were incubated with the inhibitor (12.5 μL) in the presence of 4 μM N-acetylaspartylglutamate (NAAG) (12.5 μL) for 120 min. The amount of the glutamate released by NAAG hydrolysis was measured by incubating with a working solution (50 μL) of the Amplex Red Glutamic Acid Kit for 60 min. […] Assays were performed in triplicate. Data analysis was performed using GraphPad Prism version 4.00 for Windows (GraphPad Software, San Diego, Calif.).

PSMA [2] = target: T1, PSMA; settings: from Chen, 2008; read-out: Ki, PSMA inhibition; cited from earlier work
PSMA [3] = target: T1, PSMA; settings: cited from earlier work; for blood pool and salivary / lacrimal gland uptake in clinical PET imaging: patients
[4] = Table 3, Cheng-Prusoff conversion, read-out: Ki

T1 sequence (Q04609 whole entry): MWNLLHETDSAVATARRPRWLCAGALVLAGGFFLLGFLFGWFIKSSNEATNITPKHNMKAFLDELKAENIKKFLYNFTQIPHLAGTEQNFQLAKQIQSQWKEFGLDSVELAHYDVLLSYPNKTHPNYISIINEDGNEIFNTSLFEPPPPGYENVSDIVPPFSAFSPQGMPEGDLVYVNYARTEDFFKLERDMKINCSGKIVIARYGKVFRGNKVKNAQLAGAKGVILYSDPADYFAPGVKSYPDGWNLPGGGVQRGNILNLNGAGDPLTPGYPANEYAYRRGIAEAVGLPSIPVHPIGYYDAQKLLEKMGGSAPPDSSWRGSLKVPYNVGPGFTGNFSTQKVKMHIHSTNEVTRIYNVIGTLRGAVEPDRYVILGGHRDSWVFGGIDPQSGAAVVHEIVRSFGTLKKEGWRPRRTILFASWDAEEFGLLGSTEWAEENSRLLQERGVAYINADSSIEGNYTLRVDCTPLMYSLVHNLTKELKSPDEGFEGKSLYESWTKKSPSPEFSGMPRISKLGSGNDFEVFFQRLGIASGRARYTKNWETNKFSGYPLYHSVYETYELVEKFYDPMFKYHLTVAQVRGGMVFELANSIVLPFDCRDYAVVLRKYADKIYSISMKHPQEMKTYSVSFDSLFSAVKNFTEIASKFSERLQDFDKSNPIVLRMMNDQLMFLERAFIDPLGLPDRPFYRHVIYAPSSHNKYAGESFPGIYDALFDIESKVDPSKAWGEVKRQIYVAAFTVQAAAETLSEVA

IC50 (PSMA [1]; Table 3) | Ki (PSMA [1]; [4]) | SMILES | further results
1.3 nM | 0.26 nM | CSc1ccc(C(=O)NCCCC(=O)N[C@H](CNC(=O)N[C@@H](CCC(=O)O)C(=O)O)C(=O)O)cc1 [XY-40] | 
86 nM | 13 nM | O=C(O)CC[C@H](NC(=O)O[C@@H](CCCCNC(=O)c1ccc(-c2ccccc2)cc1F)C(=O)O)C(=O)O [XY-42] | 
1.6 nM | 0.32 nM | O=C(O)CC[C@H](NC(=O)O[C@@H](CCCCNC(=O)c1ccc(I)cc1F)C(=O)O)C(=O)O [XY-43] | 
2 nM | 0.4 nM | O=C(O)CC[C@H](NC(=O)NC[C@@H](NC(=O)CCCNC(=O)c1ccc(-c2ccccc2)cc1F)C(=O)O)C(=O)O [XY-46] | 
192 nM | 38 nM | O=C(O)CC[C@H](NC(=O)O[C@@H](CCCCNC(=O)c1ccc(Cl)cc1F)C(=O)O)C(=O)O [XY-49] | 
3800 nM | 770 nM | O=C(O)CC[C@H](NC(=O)O[C@@H](CCCCNC(=O)c1ccc(I)cc1OCCCCNC(=O)c1ccc(I)cc1)C(=O)O)C(=O)O [XY-50] | 

Further lines, the compound ahead of its results:

SMILES | IC50 (PSMA [1]; Table 3) | Ki (PSMA [1]; [4]) | further results
O=C(O)CC[C@H](NC(=O)N[C@@H](CSCc1ccc(I)cc1)C(=O)O)C(=O)O [DCIBC, reference compound] |  |  | Ki (PSMA [1]; Table 4, read-out: Ki): 0.03 nM
O=C(O)CC[C@H](NC(=O)O[C@@H](CCNC(=O)c1ccc(F)cc1)C(=O)O)C(=O)O [XY-16] | 4500 nM | 900 nM | 
O=C(O)CC[C@H](NC(=O)O[C@H](CCNC(=O)c1ccc(F)cc1)C(=O)O)C(=O)O [XY-17] | 4900 nM | 980 nM | 
O=C(O)CC[C@H](NC(=O)O[C@@H](CCCCNC(=O)c1ccc(F)cc1)C(=O)O)C(=O)O [XY-20, (S)-2-(((((S)-1-carboxy-5-(4-fluorobenzamido)pentyl)oxy)carbonyl)amino)pentanedioic acid] | 210 nM | 42 nM | reduction in binding affinity compared to 9 (YC-I-26) (PSMA [1]): more than 150 fold
O=C(O)CC[C@H](NC(=O)O[C@@H](CCCCNC(=O)c1ccc2ccccc2c1)C(=O)O)C(=O)O [XY-21] | 60 nM | 12 nM | 
COc1ccc2cc(C(=O)NCCCC[C@H](OC(=O)N[C@@H](CCC(=O)O)C(=O)O)C(=O)O)ccc2c1 [XY-22] | 104 nM | 20 nM | 
COc1ccc(-c2ccc(C(=O)NCCCC[C@H](OC(=O)N[C@@H](CCC(=O)O)C(=O)O)C(=O)O)cc2)cc1 [XY-23] | 30 nM | 6 nM | 
O=C(O)CC[C@H](NC(=O)O[C@@H](CCCCNC(=O)c1ccc(-c2ccc(OCCF)cc2)cc1)C(=O)O)C(=O)O [XY-24] | 120 nM | 22 nM | 
O=C(O)CC[C@H](NC(=O)O[C@@H](CCCCNC(=O)c1ccc(I)cc1)C(=O)O)C(=O)O [XY-26] | 4.3 nM |  | Ki (PSMA [1]; read-out: Ki, PSMA inhibition): 0.9 nM
COc1ccc(C(=O)NCCCC[C@H](OC(=O)N[C@@H](CCC(=O)O)C(=O)O)C(=O)O)cc1 [XY-27] | 100 nM | 21 nM | 
CSc1ccc(C(=O)NCCCC[C@H](OC(=O)N[C@@H](CCC(=O)O)C(=O)O)C(=O)O)cc1 [XY-28] | 24 nM | 4.8 nM | 
CC(=O)Nc1ccc(C(=O)NCCCC[C@H](OC(=O)N[C@@H](CCC(=O)O)C(=O)O)C(=O)O)cc1 [XY-29] | 660 nM | 130 nM | 
CNC(=O)c1ccc(C(=O)NCCCC[C@H](OC(=O)N[C@@H](CCC(=O)O)C(=O)O)C(=O)O)cc1 [XY-30] | 1300 nM | 270 nM | 
O=C(O)CC[C@H](NC(=O)NC[C@H](NC(=O)c1ccc(F)cc1)C(=O)O)C(=O)O [XY-34] | 43000 nM | 9.7 nM | 
O=C(O)CC[C@H](NC(=O)NC[C@H](NC(=O)CCCNC(=O)c1ccc(F)cc1)C(=O)O)C(=O)O [XY-35] | 8000 nM | 1600 nM | 
O=C(O)CC[C@H](NC(=O)O[C@@H](CCCCNC(=O)c1ccc(SCCF)cc1)C(=O)O)C(=O)O [XY-38] | 41 nM | 8.3 nM | 
O=C(O)CC[C@H](NC(=O)O[C@@H](CCCCNC(=O)c1ccc(SCc2ccc(F)cc2)cc1)C(=O)O)C(=O)O [XY-39] | 46 nM | 9.3 nM | 
O=CO[C@@H](CNC(=O)N[C@@H](CCC(=O)O)C(=O)O)NC(=O)CCCNC(=O)c1ccc(I)cc1F [XY-44] |  |  | Ki (PSMA [1]; Table 4, read-out: Ki): 0.017 nM; Ki (PSMA [1]; read-out: Ki, PSMA inhibition): 0.02 nM
O=CO[C@@H](CNC(=O)N[C@@H](CCC(=O)O)C(=O)O)NC(=O)CCCNC(=O)c1ccc(C2=CCCCC2)cc1F [XY-45] |  |  | Ki (PSMA [1]; Table 4, read-out: Ki): 0.1 nM
Cc1cc(Br)ccc1C(=O)NCCCC(=O)N[C@H](CNC(=O)N[C@@H](CCC(=O)O)C(=O)O)OC=O [XY-58] |  |  | Ki (PSMA [1]; Table 4, read-out: Ki): 0.036 nM; Ki (PSMA [1]; read-out: Ki, PSMA inhibition): 0.04 nM
O=CO[C@@H](CNC(=O)N[C@@H](CCC(=O)O)C(=O)O)NC(=O)CCCNC(=O)c1ccc(Br)cc1 [XY-59] |  |  | Ki (PSMA [1]; Table 4, read-out: Ki): 0.02 nM
O=CO[C@@H](CNC(=O)N[C@@H](CCC(=O)O)C(=O)O)NC(=O)CCCNC(=O)c1ccc(F)cc1 [YC-I-26, reference compound] |  |  | Ki (PSMA [1]; Table 4, read-out: Ki): 0.3 nM; Ki (PSMA [2]): 0.25 nM
O=C(O)CC[C@H](NC(=O)N[C@@H](CSCc1ccc([18F])cc1)C(=O)O)C(=O)O [[^18F]DCFBC] |  |  | blood pool and salivary / lacrimal gland uptake in clinical PET imaging (PSMA [3]): persistent blood pool occupancy but low salivary gland uptake
O=C(O)CC[C@H](NC(=O)N[C@@H](CCCCNC(=O)Nc1ccc([123I])cc1)C(=O)O)C(=O)O [[^124I]-MIP-1095] |  |  | blood pool and salivary / lacrimal gland uptake in clinical PET imaging (PSMA [3]): rapid clearance from the blood but high uptake in salivary and lacrimal glands
O=C(O)CC[C@H](NC(=O)N[C@@H](CCCCNC(=O)Nc1ccc([131I])cc1)C(=O)O)C(=O)O [[^131I]-MIP-1095] |  |  | dose-limiting organs from absorbed dose estimates (PSMA [3]; Zechmann, 2014): salivary glands, lower large intestinal wall, and kidneys
